Some test systems named below: KM12 colon; SF-268 CNS; COLO 205 colon; BT-549 breast; NCI-H23 lung; CCRF-CEM leukemia; RXF 393 renal; CAKI-1 renal; HS 578T breast; PC-3 prostate.
Common to all, as to assay: NCI anticancer screen, dose series, 48 h

These results are taken from PubChem BioAssay (NCI).

Where “and” joins values, the source holds several entries; their conditions need not be identical. Identical values can stand only once.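 Following 48 hours of exposure in 96-well plates, responses at five concentrations were used to interpolate endpoints linearly. At the GI50, growth is halved. Definition used: TGI = concentration required for complete inhibition of growth.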 A value given as a limit tells only on which side of the number the result lay.

Take `COc1cc2cc(Oc3ccc(NC(=O)Nc4cc(C(F)(F)F)cc(C(F)(F)F)c4)cc3)c(C)nc2cc1OCCN1CCCCC1`: the GI50 in the test on KM12 colon was 1.91 µM; in the test with SF-268 CNS it was 1.69 µM; in the test on COLO 205 colon it was 1.89 µM; with BT-549 breast, 1.8 µM; with NCI-H23 lung it was 1.75 µM; with CCRF-CEM leukemia it was 2.11 µM. For the same compound, the GI50 with RXF 393 renal was 1.59 µM; in the test on CAKI-1 renal it was 1.42 µM; in the test on HS 578T breast it was 1.93 µM; in the test with PC-3 prostate, 1.49 µM. The TGI came out at 3.47 µM with KM12 colon; 3.37 µM in the test with SF-268 CNS; 3.62 µM in the test on COLO 205 colon; 3.41 µM in the test on BT-549 breast; 3.32 µM in the test with NCI-H23 lung; 4.71 µM in the test with CCRF-CEM leukemia. Moreover, the TGI in the test on RXF 393 renal amounted to 3.2 µM; with CAKI-1 renal, 2.86 µM; in the test with HS 578T breast it was 4.67 µM; in the test with PC-3 prostate, 2.85 µM.

For the compound `Nc1ccc(Sc2ccc3c4c2cccc4c(=O)n2c4ccccc4nc32)cc1`, the GI50 in the test on KM12 colon is 6.63 µM; in the test with SF-268 CNS, 5.42 µM; in the test with COLO 205 colon it was 7.24 µM; in the test with BT-549 breast it was 6.06 µM; in the test on NCI-H23 lung it was 5.03 µM; in the test with CCRF-CEM leukemia, 2.35 µM. Also, the GI50 in the test with RXF 393 renal was 6.9 µM; in the test on CAKI-1 renal, 1.82 µM; in the test with HS 578T breast, 10.1 µM; in the test on PC-3 prostate, 2.67 µM. Moreover, the TGI with KM12 colon was 58.6 µM; in the test with SF-268 CNS, 80.2 µM; in the test with COLO 205 colon it was 27.2 µM; in the test on BT-549 breast it was 56.3 µM; with NCI-H23 lung it was more than 100 µM; in the test on CCRF-CEM leukemia, more than 100 µM. Moreover, the TGI in the test with RXF 393 renal is 34.5 µM; in the test on CAKI-1 renal, 8.48 µM; in the test with HS 578T breast it was more than 100 µM; in the test on PC-3 prostate it was 21.7 µM.

With `CCCCCCCC(=O)O[C@H]1[C@H]2[C@@H](CC1(C)C)C(=O)[C@]13O[C@H]1C(=O)[C@]1(CO1)[C@]23C`, the GI50 in the test with KM12 colon was 19 µM; in the test with SF-268 CNS, 8.17 µM; in the test with COLO 205 colon it was 2.17 µM; in the test on NCI-H23 lung, 12.5 µM; in the test with CCRF-CEM leukemia it was 0.593 µM; in the test with RXF 393 renal, 1.93 µM. Also, the TGI was 40.3 µM and 21.5 µM in the test on KM12 colon; 23.1 µM and 16.2 µM in the test on SF-268 CNS; 5.18 µM and 4.07 µM in the test on COLO 205 colon; 28.8 µM in the test with BT-549 breast; 28.4 µM and 8.51 µM in the test on NCI-H23 lung; 3.57 µM and 1.58 µM in the test on CCRF-CEM leukemia. Also, the TGI with RXF 393 renal was 3.97 µM and 5.31 µM; with CAKI-1 renal, 5.82 µM and 5.58 µM; in the test with HS 578T breast, more than 100 µM; with PC-3 prostate, 30.8 µM.

With `COc1ccc(OC)c(/C=C/C(=O)c2ccc(SC)cc2)c1`, the GI50 with KM12 colon is 4.9 µM; in the test on SF-268 CNS it was 2.58 µM; with COLO 205 colon, 5.57 µM; in the test on BT-549 breast, 2.8 µM; with NCI-H23 lung, 2.77 µM; in the test with CCRF-CEM leukemia, 2.22 µM. Also, the GI50 with RXF 393 renal was 16.2 µM; in the test on CAKI-1 renal, 2.39 µM; with HS 578T breast it was 3.81 µM; in the test with PC-3 prostate it was 3.49 µM. Moreover, the TGI was 27.7 µM in the test with KM12 colon; 7.46 µM in the test with SF-268 CNS; more than 100 µM with COLO 205 colon; 7.01 µM with BT-549 breast; 7.6 µM in the test on NCI-H23 lung; 13.8 µM in the test on CCRF-CEM leukemia. For the same compound, the TGI in the test on RXF 393 renal was 37.3 µM; in the test with CAKI-1 renal, 18.5 µM; in the test with HS 578T breast it was more than 100 µM; in the test on PC-3 prostate it was 14.9 µM.

As for `CCN(CC)CCn1nc2c3c(cccc3c1=O)-c1ccccc1-2`, the GI50 in the test with KM12 colon was 2.84 µM; in the test with SF-268 CNS, 2.87 µM; in the test on COLO 205 colon, 1.86 µM; in the test with BT-549 breast it was 6.16 µM; in the test with NCI-H23 lung, 1.82 µM; in the test with CCRF-CEM leukemia, 2.08 µM. Moreover, the GI50 in the test with RXF 393 renal was 2.05 µM; in the test on CAKI-1 renal it was 1.39 µM; in the test on HS 578T breast, 11.2 µM; with PC-3 prostate, 3.55 µM. Also, the TGI in the test on KM12 colon is more than 50 µM; in the test on SF-268 CNS, 21.3 µM; in the test on COLO 205 colon, 10.2 µM; in the test on BT-549 breast it was 15.1 µM; with NCI-H23 lung, 8.98 µM; with CCRF-CEM leukemia, 45.9 µM. Moreover, the TGI in the test with RXF 393 renal is 8.09 µM; with CAKI-1 renal, more than 50 µM; in the test with HS 578T breast, more than 50 µM; in the test with PC-3 prostate, 23.6 µM.

On to `COC(=O)CCCCCCCCC(=O)c1c(C)[nH]c(/C=C2\N=C(c3ccc[nH]3)C=C2OC)c1C`, for which the GI50 with KM12 colon was more than 69.9 µM; with SF-268 CNS, more than 20.6 µM; in the test on COLO 205 colon it was more than 100 µM; in the test on BT-549 breast, 3.39 µM; in the test on NCI-H23 lung, more than 100 µM; with CCRF-CEM leukemia, 2.3 µM. Also, the GI50 with RXF 393 renal is 31.3 µM; with CAKI-1 renal, 26.6 µM; with HS 578T breast, more than 33 µM; in the test with PC-3 prostate, 4.88 µM. Further, the TGI with KM12 colon, in the test with SF-268 CNS, in the test on COLO 205 colon, in the test with BT-549 breast, with NCI-H23 lung and in the test on CCRF-CEM leukemia was more than 100 µM throughout. The TGI in the test on RXF 393 renal is more than 100 µM; in the test on CAKI-1 renal, more than 87.7 µM; with HS 578T breast it was more than 100 µM; in the test on PC-3 prostate it was more than 100 µM.

For the compound `Cn1cc(C2=C(c3cccc(Cl)c3)C(=O)NC2=O)c2ccccc21`, the GI50 with KM12 colon was more than 25 µM; in the test with SF-268 CNS it was more than 25 µM; with COLO 205 colon, 5.65 µM; in the test on BT-549 breast it was more than 25 µM; in the test on NCI-H23 lung it was more than 25 µM; with CCRF-CEM leukemia, more than 25 µM. Besides, the GI50 is 8.22 µM in the test with RXF 393 renal, more than 17 µM in the test with CAKI-1 renal, 7.28 µM in the test with HS 578T breast and 18.3 µM with PC-3 prostate. Further, the TGI is more than 25 µM with KM12 colon; more than 25 µM in the test on SF-268 CNS; 14.4 µM in the test on COLO 205 colon; more than 25 µM in the test with BT-549 breast; more than 25 µM in the test on NCI-H23 lung; more than 25 µM in the test on CCRF-CEM leukemia. Also, the TGI in the test with RXF 393 renal, with CAKI-1 renal, with HS 578T breast and in the test on PC-3 prostate was more than 25 µM in each case.

With `O=C(Nc1ccc(I)cc1F)c1cc(F)ccc1O`, the GI50 is 2.21 µM in the test on KM12 colon; 0.513 µM in the test with SF-268 CNS; 3.88 µM in the test with COLO 205 colon; 0.301 µM in the test with BT-549 breast; 0.379 µM with NCI-H23 lung; 1.85 µM in the test on CCRF-CEM leukemia. For the same compound, the GI50 in the test with RXF 393 renal was 0.732 µM; in the test with CAKI-1 renal, 0.342 µM; with HS 578T breast, 0.44 µM; with PC-3 prostate, 0.843 µM. Besides, the TGI in the test on KM12 colon is 6.23 µM; in the test on SF-268 CNS, more than 31.1 µM; with COLO 205 colon, 15.6 µM; in the test on BT-549 breast it was 1.05 µM; with NCI-H23 lung, 4.04 µM; in the test on CCRF-CEM leukemia, 12.4 µM. In addition, the TGI in the test with RXF 393 renal was 4.05 µM; in the test with CAKI-1 renal, 2.86 µM; in the test on HS 578T breast, 5.29 µM; in the test with PC-3 prostate it was 6.4 µM.

`COC(=O)C1=C(C)NC(C)=C(C(=O)OC)C1c1ccccc1[N+](=O)[O-]`: the GI50 is more than 100 µM in the test on KM12 colon; more than 100 µM in the test with SF-268 CNS; 89 µM with COLO 205 colon; more than 100 µM in the test on BT-549 breast; more than 100 µM with NCI-H23 lung; more than 100 µM with CCRF-CEM leukemia. For the same compound, the GI50 was 36 µM in the test on RXF 393 renal, 38.8 µM in the test on CAKI-1 renal, 32.4 µM in the test on HS 578T breast and 50.3 µM in the test on PC-3 prostate. The TGI in the test with KM12 colon, in the test on SF-268 CNS, in the test with COLO 205 colon, in the test on BT-549 breast, with NCI-H23 lung and with CCRF-CEM leukemia was more than 100 µM each time. Further, the TGI in the test with RXF 393 renal, with CAKI-1 renal, in the test with HS 578T breast and in the test on PC-3 prostate was more than 100 µM throughout.

`Fc1ccc(-c2ncn(C3CCNCC3)c2-c2ccnc(Oc3ccc(Oc4ccccc4)cc3)n2)cc1`: the GI50 with KM12 colon was 4.16 µM; in the test on SF-268 CNS, 3.94 µM; with COLO 205 colon, 2.48 µM; with BT-549 breast, 3.75 µM; in the test with NCI-H23 lung it was 4.08 µM; with CCRF-CEM leukemia it was 5.22 µM. Moreover, the GI50 in the test on RXF 393 renal is 2.78 µM; with CAKI-1 renal it was 3.92 µM; in the test with HS 578T breast, 1.73 µM; in the test on PC-3 prostate, 3.49 µM. In addition, the TGI with KM12 colon amounted to 7.8 µM; in the test with SF-268 CNS, 7.71 µM; in the test with COLO 205 colon, 6.23 µM; with BT-549 breast it was 7.1 µM; with NCI-H23 lung, 7.9 µM; with CCRF-CEM leukemia, 10.3 µM. Also, the TGI came out at 6.1 µM in the test on RXF 393 renal, 7.74 µM in the test on CAKI-1 renal, 6.89 µM with HS 578T breast and 6.87 µM with PC-3 prostate.

As for `BrCC[N+]12CCCN1CCC2`, the TGI in the test on KM12 colon was more than 94.6 µM; in the test with SF-268 CNS it was 58.9 µM; with COLO 205 colon, 10.5 µM; in the test on BT-549 breast, 31.3 µM; in the test on NCI-H23 lung, 36.6 µM; in the test on CCRF-CEM leukemia it was 4.87 µM. In addition, the TGI in the test on RXF 393 renal came out at 29.2 µM; in the test with CAKI-1 renal, 2.44 µM; in the test on HS 578T breast, 26.9 µM; in the test on PC-3 prostate it was 31.2 µM.

As for `CN1CCN(Cc2ccc(NC(=O)c3cncc(C#Cc4cncc5[nH]ncc45)c3)cc2C(F)(F)F)CC1`, the GI50 in the test with KM12 colon is 0.0209 µM; in the test with SF-268 CNS it was 0.899 µM; in the test on COLO 205 colon it was 0.192 µM; in the test with BT-549 breast, 1.39 µM; in the test on NCI-H23 lung it was 0.488 µM; in the test with CCRF-CEM leukemia, 1.25 µM. For the same compound, the GI50 was 0.665 µM with RXF 393 renal, 0.79 µM with CAKI-1 renal, 0.523 µM in the test with HS 578T breast and 1.14 µM in the test with PC-3 prostate. Also, the TGI stood at 2.65 µM in the test with KM12 colon; 3.96 µM in the test with SF-268 CNS; 3.56 µM in the test on COLO 205 colon; 5.58 µM in the test with BT-549 breast; 4.29 µM in the test on NCI-H23 lung; 5.07 µM in the test with CCRF-CEM leukemia. Besides, the TGI is 1.95 µM in the test on RXF 393 renal, 2.6 µM with CAKI-1 renal, 2.45 µM with HS 578T breast and 5.68 µM in the test on PC-3 prostate.
